Values quoted from earlier work in patent publication US8192721B2, “Compositions useful for reducing toxicity associated with gadolinium-based contrast agents” (Verrow Pharmaceuticals, Inc., priority 2007, dated 2012).

Assays:
[1] = healthy subjects with normal renal function
[2] = compared with underivatized β-cyclodextrin

Row | Compound | plasma half-life [1] | nephrotoxicity [2]
1 | [Gd] [gadolinium] | approximately 90 minutes | –
2 | β-cyclodextrin sulfobutyl ethers [Captisol®] | – | does not exhibit the nephrotoxicity
